Where two headings read alike, the source gives them in different places.
Assays:
P. putida KT2440 = conditions: minimal medium, A600 after 20 hours
Protocol: (§1) Overnight cultures of P. putida KT2440 and P. putida KT2440ΔcrcB were diluted 20 times in 10 mL of modified M9 minimal medium containing different concentrations of NaF. Cells were grown in 96-well microtiter plates (flat bottom, Greiner Bio-one) at 30° C. and 200 rpm in an ELx808 microtiter plate reader (BioTek). Cells exposed to NaF at various concentrations were incubated in a microtiter plate reader for 24 hours, and growth was followed by measuring OD630 every 30 minutes. The concentrations used for each strain were 0, 25, 50, 75, 125, 200 and 250 mM for P. putida KT2440, and 0, 0.1, 0.5, 1 and 5 mM for P. putida KT2440ΔcrcB.
(§2) The effect of the deletion of crcB on the growth in the presence of high concentrations of NaF in P. putida KT2440 was assessed by calculating the minimal inhibitory concentrations (MICs) of NaF needed to suppress the growth in both a wild-type and a ΔcrcB mutant.

P. putida KT2440ΔcrcB [1] = tested on: P. putida KT2440ΔcrcB
Protocol: as §1, §2

FRS-PT7 system [2] = tested on: FRS-PT7 system
Protocol: (§5) Overnight cultures of P. putida KT2440 with plasmids pSEVA441-FRSv1, pSEVA441-FRSv2, pSEVA441-FRSv3, pSEVA441-FRSv4, or pSEVA441 as autofluorescence control, were diluted 40 times in 10 ml of minimal medium. […] Subsequently, kinetics of the growth and fluorescence, using wavelengths of excitation and emission of 485 nm and 528 nm, respectively, were performed using a SynergyMX (BioTek) microtiter plate reader for 20 hours. Measurements for kinetics were carried out every ten minutes and three independent biological replicates were carried out. The same procedure was carried out with P. putida KT2440::FRS-T7RNAP and P. putida KT2440ΔcrcB::FRS-T7RNAP strains containing the plasmid pSEVA231-T7pr::msfGFP as well as with the plasmid pSEVA231-T7pr, used as an autofluorescence control.

[3] = tested on: F^− responsive riboswitch (FRS) from P. syringae; assay: Expression assay, FRS constructs FRSv1-4 before msfGFP in P. putida KT2440; format: cell-based, Pseudomonas putida; conditions: 0, 1, 5 and 15 mM of NaF
Protocol: Overnight cultures of P. putida KT2440 with plasmids pSEVA441-FRSv1, pSEVA441-FRSv2, pSEVA441-FRSv3, pSEVA441-FRSv4, or pSEVA441 as autofluorescence control, were diluted 40 times in 10 ml of minimal medium. […] Subsequently, kinetics of the growth and fluorescence, using wavelengths of excitation and emission of 485 nm and 528 nm, respectively, were performed using a SynergyMX (BioTek) microtiter plate reader for 20 hours. Measurements for kinetics were carried out every ten minutes and three independent biological replicates were carried out.
To check the performance of the riboswitch in P. putida KT2440 we cloned four different versions of the riboswitch before the fluorescent reporter protein msfGFP. In the constructions FRSv1 and FRSv2 we kept the original promoter of gene eriC^F, whereas in FRSv3 and FRSv4 we changed the promoter to a constitutive heterologous promoter, PEM7. In the constructions FRSv1 and FRSv3 we conserved the first 8 amino acids of the original eriC^F gene as well, whereas FRSv2 and FRSv4 started with the coding sequence of the msfGFP (FIG. 2).

FRS-PT7 system [4] = assay: Expression assay, FRS-PT7 system with PT7-msfgfp in P. putida KT2440ΔcrcB::FRS-T7RNAP; format: cell-based, Pseudomonas putida; conditions: lower NaF concentrations than in the P. putida KT2440 background
Protocol: as §5

P. putida KT2440ΔcrcB [5] = conditions: data not shown
Protocol: Growth arrest by NaF in P. putida KT2440ΔcrcB was performed by diluting 20 times the overnight cultures in 10 mL of modified M9 minimal medium. Cells were grown in 96-well microtiter plates (flat bottom, Greiner Bio-one) at 30° C. and 200 rpm in an ELx808 microtiter plate reader (BioTek). After six hours of incubation, the cultures had reached an OD630 of 0.5, and the NaF was added at different concentrations. Cells exposed to the stressor were incubated in a microtiter plate reader for 24 hours, and growth was followed by measuring OD630 every 30 minutes. The concentrations of NaF used were 0, 0.05, 0.1, 0.5, 0.75, 1, 2 and 5 mM.
To explore the possibility of having a growth-decoupled platform for biofluorination, we tested the effect of NaF in the growth when added in mid-exponential phase.

[6] = molecular target: T1, E. coli PNP, coded by the gene deoD (Escherichia coli, UniProt P0ABP8); assay: In vitro conversion of 5′-FDA by cell extracts expressing DeoD; format: biochemical; conditions: 20 hours
T1 construct: made in house; host or cells: Pseudomonas putida (pPS23 vector, XylS/Pm system; crude cell extract, not purified)
T1 sequence (P0ABP8 whole entry): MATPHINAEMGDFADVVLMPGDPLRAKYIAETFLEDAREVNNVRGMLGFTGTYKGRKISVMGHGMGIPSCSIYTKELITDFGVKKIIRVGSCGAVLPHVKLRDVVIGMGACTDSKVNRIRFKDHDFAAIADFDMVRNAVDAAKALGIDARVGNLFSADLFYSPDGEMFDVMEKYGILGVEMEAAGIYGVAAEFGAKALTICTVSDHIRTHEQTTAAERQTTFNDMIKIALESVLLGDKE
Protocol: (§3) The E. coli purine nucleotide phosphorylase, coded by the gene deoD (SEQ ID NO: 14), as well as the nucleosidase pfs (SEQ ID NO: 16), were amplified by PCR from the genome of the strain MG1655 using reverse primers containing the sequence to introduce a 6×His tag, in order to allow purification if needed. These fragments were respectively mixed with a PCR fragment amplified with USER primers of the pPS23 vector, containing the XylS/Pm expression system. The cloning was performed by USER cloning as described above.
(§4) We furthermore explored the possibility that 5′-FDA could be utilized for other enzymes different to the endogenous of the fluorination pathway from Streptomyces. For this purpose, we used another PNP and a nucleosidase of E. coli. The E. coli PNP, coded by the gene deoD (SEQ ID NO: 14), is able to perform the same reaction as FlB1, and produce 5′-FDRP, whereas the nucleosidase, coded by the gene pfs (SEQ ID NO: 16), removes the […] of 5′-FDA, yielding the sugar 5′-fluorodeoxyribose. These three enzymes share a similarity of 26% in their amino acidic sequence, and contain a common domain, the PNP_UDP_1 domain (PF0148), belonging to the Phosphorylase superfamily. To test the activity of these two enzymes, they were overexpressed in P. putida and the cell extracts were incubated with the substrate 5′-FDA.

[7] = molecular target: T2, nucleosidase, coded by the gene pfs (Escherichia coli, UniProt P0AF12); assay: In vitro conversion of 5′-FDA by cell extracts expressing Pfs; format: biochemical, E. coli; conditions: 20 hours
T2 construct: made in house; host or cells: Pseudomonas putida (pPS23 vector, XylS/Pm system; crude cell extract, not purified)
T2 sequence (P0AF12 whole entry): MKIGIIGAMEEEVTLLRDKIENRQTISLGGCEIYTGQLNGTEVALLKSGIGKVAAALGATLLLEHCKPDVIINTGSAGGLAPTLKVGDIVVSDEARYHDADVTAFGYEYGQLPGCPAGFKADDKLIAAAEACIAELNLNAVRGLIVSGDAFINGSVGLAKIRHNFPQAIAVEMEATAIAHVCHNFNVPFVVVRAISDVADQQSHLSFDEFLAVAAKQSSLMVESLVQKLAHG
Protocol: as §3, §4

PNP FlB1 = assay: In vitro phosphorylase activity assay with cell extracts expressing FlB1; format: biochemical, Streptomyces sp. MA37; conditions: 20 hours of incubation, extracts with plasmid pFB-T7FlB1(NHis)
Protocol: In vitro biofluorination was performed with the strain P. putida KT2440 harboring the plasmids pFB-PmflA1, pFB-PT7flB1(NHis), and pFB-PT7flA1, and pPS23 or pSEVA231-PT7pr as negative controls, respectively. Overnight cultures of the strains were diluted to an OD600 of 0.1 in fresh minimal medium, in 250-ml shake flasks. Cells were grown for six hours at 30° C. with shaking of 200 rpm, when they reached an OD600 between 0.4-0.6, after which they were induced with 3-MB 1 mM for the XylS/Pm system or 15 mM of NaF for the FRS-PT7. After 20 hours of incubation, all the volume of culture was centrifuged at 5000 rpm for 10 minutes at 4° C., and the supernatant was discarded. Cellular pellets were washed with Tris-HCl 50 mM pH7.8 and resuspended in a final volume of 3 ml. Cells were disrupted using glass beads in a bead beater, using a program of 6000 rpm for 20 seconds. […] Protein concentrations were determined using a Bradford assay, yielding a concentration of at least 1 mg/ml.
Similarly, for phosphorylase activity assays, 1 ml of the protein fraction from cultures expressing the phosphorylase was then mixed with 0.2 mM of 5′-FDA, in Tris-HCl 50 mM pH7.8. […] After 20 hours of incubation at 30° C., the rest of the reaction was inactivated as described before and the supernatant was taken and analyzed by HPLC. […]

XylS/Pm system = conditions: Calero 2016; cited from earlier work

With `[F-].[Na+]` [NaF, Sodium fluoride] the “NaF concentration in which the strain was able to thrive (MIC assay)” value (P. putida KT2440) was 75 mM, the “Growth inhibition on plates” value (P. putida KT2440ΔcrcB [1]; LB plates containing 0.5 and 1 mM of NaF) was “This effect was also seen” and the “NaF concentration at which the strain was not able to grow (MIC assay)” value (P. putida KT2440ΔcrcB [1]; minimal medium, A600 after 20 hours) was 0.5 mM. For the same compound, the “Fluorescence response of the FRS-PT7 system” value (FRS-PT7 system [2]; 0, 1 and 15 mM of NaF) was “led to an increase of the cells fluorescence”, the “Final growth of the cultures” value (FRS-PT7 system [2]; NaF concentrations used for induction (up to 15 mM)) was “not affected” and the “Fluorescence response of the four FRS constructs” value [3] was “an increase of the fluorescence when higher concentrations of NaF were used”. The “Expression levels relative to the wild-type background” value (FRS-PT7 system [4]) was “almost two times higher than in the wild-type background”, the Effect on growth (P. putida KT2440ΔcrcB [5]; 0.5 mM of NaF added in mid-exponential phase) was “a decrease in the growth phase was found” and the Effect on growth (P. putida KT2440ΔcrcB [5]; 1 mM of NaF added in mid-exponential phase) was “stopped cell growth almost completely”.
For `[Cl-].[Na+]` [NaCl, reference compound], the “Effect on growth of the ΔcrcB mutant versus wild-type” value (P. putida KT2440ΔcrcB [1]; same assays in the presence of NaCl, data not shown) was “no such effect was seen”.
In the case of `Nc1ncnc2c1ncn2[C@@H]1O[C@H](CF)[C@@H](O)[C@H]1O` [5′-FDA, 5′-fluoro-5′-deoxyadenosine], the “Consumption of substrate 5′-FDA (product 5′-FDRP detected by LC-MS)” value [6] is reported as “reduced or depleted completely”, the “Consumption of substrate 5′-FDA (product 5′-fluorodeoxyribose detected by LC-MS)” value [7] is reported as “reduced or depleted completely” and the “Change of 5′-FDA concentration versus initial concentration” value (PNP FlB1) is reported as “a decrease in the concentration of 5′-FDA”.
For `Cc1cccc(C(=O)O)c1` [3-MB, 3-methylbenzoate], the “Inducer concentration needed to achieve full expression” value (XylS/Pm system) is given as 0.5 mM.
